{
  "source": "DBAASP",
  "assay_in_all_cases": "≥ marks a high value that may be exact or a test limit, other limits are often not marked, values filed in µg/mL are converted to µM",
  "key": {"[1]": {"tested_on": "Nocardia brasiliensis IP16-80"}, "[2]": {"tested_on": "Aspergillus fumigatus IP1025-70"}, "[3]": {"tested_on": "Saccharomyces cerevisiae IP118079"}, "[4]": {"tested_on": "Cryptococcus neoformans IP960-67"}, "[5]": {"tested_on": "Staphylococcus aureus IP76-25"}, "[6]": {"tested_on": "Escherichia coli IP76-24"}, "[7]": {"tested_on": "Enterococcus faecalis IP103214"}, "[8]": {"tested_on": "Trichophyton simii IP1063-74"}, "[9]": {"tested_on": "Candida albicans IP884-65"}, "[10]": {"tested_on": "Aspergillus niger IP218-53"}, "[11]": {"tested_on": "Aeromonas caviae IP67-16T"}, "[12]": {"tested_on": "Candida albicans"}, "[13]": {"tested_on": "Bacillus subtilis"}, "[14]": {"tested_on": "Serratia sp."}, "[15]": {"tested_on": "Salmonella typhimurium"}, "[16]": {"tested_on": "Saccharomyces cerevisiae"}, "[17]": {"tested_on": "Cryptococcus neoformans"}, "[18]": {"tested_on": "Escherichia coli"}, "[19]": {"tested_on": "Staphylococcus aureus"}, "[20]": {"tested_on": "Streptococcus mutans"}, "[21]": {"tested_on": "Pseudomonas putida"}, "[22]": {"tested_on": "Bacillus subtilis ATCC 21332"}, "[23]": {"tested_on": "Enterobacter cloacae ATCC 13047"}, "[24]": {"tested_on": "Acinetobacter baumannii ATCC 19606"}, "[25]": {"tested_on": "Escherichia coli ATCC 25922"}, "[26]": {"tested_on": "Pseudomonas aeruginosa ATCC 15442"}, "[27]": {"tested_on": "Klebsiella pneumoniae ATCC 700603"}, "[28]": {"tested_on": "Klebsiella pneumoniae"}, "[29]": {"tested_on": "Acinetobacter baumannii"}, "[30]": {"tested_on": "Staphylococcus epidermidis ATCC 12228"}, "[31]": {"tested_on": "Staphylococcus hominis ATCC 29970"}, "[32]": {"tested_on": "Stenotrophomonas maltophilia"}, "[33]": {"tested_on": "Enterococcus faecium ATCC 29212"}, "[34]": {"tested_on": "Klebsiella aerogenes ATCC 49701"}, "[35]": {"tested_on": "Proteus mirabilis"}, "[36]": {"tested_on": "Enterococcus faecium"}, "[37]": {"tested_on": "Klebsiella aerogenes"}, "[38]": {"tested_on": "Staphylococcus hominis"}, "[39]": {"tested_on": "Streptococcus agalactiae"}, "[40]": {"tested_on": "Proteus mirabilis ATCC 12453"}, "[41]": {"tested_on": "Pseudomonas aeruginosa"}, "[42]": {"tested_on": "Serratia marcescens"}, "[43]": {"tested_on": "Enterobacter cloacae"}, "[44]": {"tested_on": "Raoultella ornithinolytica ATCC 31898"}, "[45]": {"tested_on": "Stenotrophomonas maltophilia ATCC 13637"}, "[46]": {"tested_on": "Staphylococcus epidermidis"}, "[47]": {"tested_on": "Klebsiella oxytoca ATCC 43086"}, "[48]": {"tested_on": "Raoultella ornithinolytica"}, "[49]": {"tested_on": "Klebsiella oxytoca"}, "[50]": {"tested_on": "Serratia marcescens ATCC 14041"}, "[51]": {"tested_on": "Staphylococcus aureus ATCC 29213"}, "[52]": {"tested_on": "Staphylococcus aureus FDA 209P"}, "[53]": {"tested_on": "Escherichia coli NIHJ JC-2"}, "[54]": {"tested_on": "Bacillus subtilis PCI 219"}, "[55]": {"tested_on": "Pseudomonas aeruginosa U-31"}},
  "note": "“And” between values parts separate entries of the source, which are not always exact repeats. Identical values can stand only once.",
  "data": [
    {"smiles": "CC[C@H](C)[C@H](NC(=O)CNC(=O)[C@H](CCCCN)NC(=O)[C@H](CC(C)C)NC(=O)[C@H](CCSC)NC(=O)[C@H](CC(N)=O)NC(=O)[C@H](CCCCN)NC(=O)[C@H](Cc1c[nH]c2ccccc12)NC(=O)[C@H](CC(C)C)NC(=O)[C@H](C)N)C(=O)NCC(=O)N[C@@H](CCCCN)C(N)=O", "note": "[ALWKNMLKGIGK]", "values": [
      {"measurement": "MIC", "setting": "[1]", "value": "≥ 150", "unit": "µM"},
      {"measurement": "MIC", "setting": "[2]", "value": "≥ 90", "unit": "µM"},
      {"measurement": "MIC", "setting": "[3]", "value": 20, "unit": "µM"},
      {"measurement": "MIC", "setting": "[4]", "value": 6, "unit": "µM"},
      {"measurement": "MIC", "setting": "[5]", "value": "≥ 150", "unit": "µM"},
      {"measurement": "MIC", "setting": "[6]", "value": 6, "unit": "µM"},
      {"measurement": "MIC", "setting": "[7]", "value": 6, "unit": "µM"},
      {"measurement": "MIC", "setting": "[8]", "value": "≥ 70", "unit": "µM"},
      {"measurement": "MIC", "setting": "[9]", "value": "≥ 40", "unit": "µM"},
      {"measurement": "MIC", "setting": "[10]", "value": "≥ 90", "unit": "µM"},
      {"measurement": "MIC", "setting": "[11]", "value": 6, "unit": "µM"}
    ]},
    {"smiles": "CC[C@H](C)[C@H](NC(=O)[C@H](CO)NC(=O)[C@H](CCCCN)NC(=O)[C@H](Cc1ccccc1)NC(=O)[C@H](CCCCN)NC(=O)[C@H](CCCCN)NC(=O)[C@H](CC(C)C)NC(=O)[C@@H]1CCCN1C(=O)[C@@H](NC(=O)[C@H](CCCCN)NC(=O)[C@@H](NC(=O)[C@@H](NC(=O)[C@H](C)N)C(C)C)C(C)C)C(C)C)C(=O)N[C@@H](CCCN=C(N)N)C(=O)N[C@@H](CCC(=O)O)C(=O)N[C@H](C(=O)N[C@@H](CCSC)C(=O)N[C@@H](CCCCN)C(=O)N[C@@H](CCC(=O)O)C(=O)N[C@@H](CCCCN)C(=O)NCC(=O)N[C@@H](CC(C)C)C(=O)N[C@@H](CC(C)C)C(=O)N[C@@H](CCC(=O)O)C(=O)N[C@@H](CC(=O)O)C(=O)N[C@@H](Cc1ccccc1)C(=O)O)[C@@H](C)O", "note": "[AVVKVPLKKFKSIRETMKEKGLLEDF]", "values": [
      {"measurement": "MIC", "setting": "[12]", "value": 33, "unit": "µM"},
      {"measurement": "MIC", "setting": "[13]", "value": 16.5, "unit": "µM"},
      {"measurement": "MIC", "setting": "[14]", "value": "≥ 65.9", "unit": "µM"},
      {"measurement": "MIC", "setting": "[15]", "value": 6.59, "unit": "µM"},
      {"measurement": "MIC", "setting": "[16]", "value": 3.95, "unit": "µM"},
      {"measurement": "MIC", "setting": "[17]", "value": "≥ 33", "unit": "µM"},
      {"measurement": "MIC", "setting": "[18]", "value": 16.5, "unit": "µM"},
      {"measurement": "MIC", "setting": "[19]", "value": 33, "unit": "µM"},
      {"measurement": "MIC", "setting": "[20]", "value": 16.5, "unit": "µM"},
      {"measurement": "MIC", "setting": "[21]", "value": "≥ 33", "unit": "µM"}
    ]},
    {"smiles": "CC[C@H](C)[C@H](NC(=O)[C@@H](NC(=O)[C@@H]1CCCN1C(=O)[C@@H](NC(=O)[C@@H]1CCCN1C(=O)[C@H](CCCCN)NC(=O)[C@H](CCCCN)NC(=O)[C@H](CO)NC(=O)CN)C(C)C)[C@@H](C)CC)C(=O)N[C@@H](Cc1ccc(O)cc1)C(=O)N[C@H]1CSSC[C@@H](C(=O)N[C@@H](CCC(N)=O)C(=O)N[C@@H](CCCN=C(N)N)C(=O)N[C@@H](CCSC)C(=O)O)NC(=O)[C@H](CCCCN)NC(=O)CNC(=O)[C@H](CO)NC(=O)[C@H](CCCN=C(N)N)NC(=O)[C@H](CCCN=C(N)N)NC(=O)[C@H](CC(N)=O)NC1=O", "note": "[GSKKPVPIIYCNRRSGKCQRM]", "values": [
      {"measurement": "MIC", "setting": "[22]", "value": 3.3, "unit": "µM"},
      {"measurement": "MIC", "setting": "[23]", "value": 3.3, "unit": "µM"},
      {"measurement": "MIC", "setting": "[24]", "value": "> 52.9", "unit": "µM"},
      {"measurement": "MIC", "setting": "[25]", "value": "2.34 µM and 1.6 µM"},
      {"measurement": "MIC", "setting": "[26]", "value": "≥ 52.9", "unit": "µM"},
      {"measurement": "MIC", "setting": "[27]", "value": 3.3, "unit": "µM"},
      {"measurement": "MIC", "setting": "[28]", "value": 2.34, "unit": "µM"},
      {"measurement": "MIC", "setting": "[29]", "value": "≥ 52.9", "unit": "µM"},
      {"measurement": "MIC", "setting": "[30]", "value": "> 52.9", "unit": "µM"},
      {"measurement": "MIC", "setting": "[31]", "value": "≥ 52.9", "unit": "µM"},
      {"measurement": "MIC", "setting": "[32]", "value": "≥ 52.9", "unit": "µM"},
      {"measurement": "MIC", "setting": "[33]", "value": 26.4, "unit": "µM"},
      {"measurement": "MIC", "setting": "[34]", "value": 1.65, "unit": "µM"},
      {"measurement": "MIC", "setting": "[35]", "value": "≥ 52.9", "unit": "µM"},
      {"measurement": "MIC", "setting": "[36]", "value": "≥ 37.4", "unit": "µM"},
      {"measurement": "MIC", "setting": "[37]", "value": 1.65, "unit": "µM"},
      {"measurement": "MIC", "setting": "[38]", "value": "≥ 52.9", "unit": "µM"},
      {"measurement": "MIC", "setting": "[39]", "value": "≥ 52.9", "unit": "µM"},
      {"measurement": "MIC", "setting": "[40]", "value": "≥ 52.9", "unit": "µM"},
      {"measurement": "MIC", "setting": "[41]", "value": "> 52.9", "unit": "µM"},
      {"measurement": "MIC", "setting": "[42]", "value": "≥ 52.9", "unit": "µM"},
      {"measurement": "MIC", "setting": "[43]", "value": 4.67, "unit": "µM"},
      {"measurement": "MIC", "setting": "[44]", "value": 3.3, "unit": "µM"},
      {"measurement": "MIC", "setting": "[18]", "value": 2.34, "unit": "µM"},
      {"measurement": "MIC", "setting": "[19]", "value": "> 52.9", "unit": "µM"},
      {"measurement": "MIC", "setting": "[45]", "value": "≥ 52.9", "unit": "µM"},
      {"measurement": "MIC", "setting": "[46]", "value": "≥ 52.9", "unit": "µM"},
      {"measurement": "MIC", "setting": "[47]", "value": 3.3, "unit": "µM"},
      {"measurement": "MIC", "setting": "[48]", "value": 3.3, "unit": "µM"},
      {"measurement": "MIC", "setting": "[49]", "value": 3.3, "unit": "µM"},
      {"measurement": "MIC", "setting": "[50]", "value": "≥ 52.9", "unit": "µM"},
      {"measurement": "MIC", "setting": "[51]", "value": "> 52.9", "unit": "µM"}
    ]},
    {"smiles": "CC(C)C[C@H](NC(=O)[C@H](CCCCN)NC(=O)[C@H](CCCCN)NC(=O)[C@H](CCCCN)NC(=O)[C@H](CC(C)C)NC(=O)[C@H](CCCCN)NC(=O)[C@H](CCCCN)NC(=O)[C@H](Cc1c[nH]c2ccccc12)NC(=O)[C@H](CCCCN)NC(=O)[C@H](CCCCN)NC(=O)[C@H](CCCCN)NC(=O)[C@H](CC(C)C)NC(=O)[C@H](CCCCN)NC(=O)[C@H](CCCCN)NC(=O)[C@H](CC(C)C)NC(=O)[C@H](CCCCN)NC(=O)[C@@H](N)CCCCN)C(=O)N[C@@H](CCCCN)C(=O)O", "note": "[KKLKKLKKKWKKLKKKLK]", "values": [
      {"measurement": "MIC", "setting": "[52]", "value": "≥ 43", "unit": "µM"},
      {"measurement": "MIC", "setting": "[53]", "value": "≥ 43", "unit": "µM"},
      {"measurement": "MIC", "setting": "[54]", "value": "≥ 43", "unit": "µM"},
      {"measurement": "MIC", "setting": "[55]", "value": "≥ 43", "unit": "µM"}
    ]}
  ]
}
